Measured values published in patent US10434097B1, “Methods and compositions for treating hearing disorders” (GATEWAY BIOTECHNOLOGY, INC., priority 2015, dated 2019).

How the values were obtained:
[1] = tested on: CBA/CaJ mice; assay: Accelerating rotarod, chronic TET use (Example 1); format: in vivo; settings: 120 mg/kg i.p. for five days, two-month old mice, two-way ANOVA p>0.05
Protocol: CBA/CaJ mice were purchased from The Jackson Laboratory. One to five mice were housed per cage with food and water available in a noise-controlled environment on a 12-hr light/dark cycle with light onset at 6:00 a.m. TET was obtained from Sigma Chemical Co. (St. Louis, Mo.). The drug solution was injected (i.p.) for the treated groups. Control mice were given saline injection only. The amount of water/food intake was monitored daily and body weight was monitored weekly. Drug neurotoxic effects on sensory motor coordination were assessed on two-month old CBA/CaJ mice using the accelerating rotarod method. Mice were trained on the task for 5 days in order to achieve stable performance before either being treated by intraperitoneal (i.p.) injections with TET at 120 mg/kg body weight (n=5) or saline (n=6).

[2] = tested on: CBA/CaJ mice; assay: Early noise-induced accelerated ARHL model, ABR thresholds (Example 2); format: in vivo; settings: three months after noise exposure (4-25 kHz, 110 dB SPL, 30 min); TET three days before and two days after exposure
Protocol: Currently, no FDA-approved medications against ARHL are available. Two-month old CBA/CaJ mice were exposed to octave band (4-25 kHz) noise at 110 dB SPL for 30 minutes. This is a well-established noise model for our drug screenings since the noise exposure leads to dramatic acute and permanent hearing threshold shifts 24 hours and two weeks post-exposure respectively. In addition, apparently accelerated age-related increase in the auditory brainstem response (ABR) thresholds were observed three months after the noise exposure in the control group (n=6), up to approximately 50 dB at 40 kHz. Mice treated with TET (n=5) three days before and two days after the noise exposure had only about an increase of 10 dB at 40 kHz three months after exposure (FIG. 2). […] Thus, TET treatment at a young age could prevent accelerated age-related hearing loss due to early noise exposure.

[3] = tested on: CBA/CaJ mice; assay: Accelerating rotarod test, motor coordination after single injection (Example 3); format: in vivo; settings: 1 and 3 h after injection
Protocol: FIG. 3 illustrates the effects of TET on mouse rotarod performance test. CBA/CaJ mice were tested before TET treatment (baseline) and one and three hours (1 h, 3 h) after TET treatment (i.p.). The latency to fall were shown as mean+/−S.E.M.
TET effects on motor coordination were evaluated on the accelerating rotarod test. the rotating speed was increased with an acceleration rate of 10 rpm/min. The length of time that each animal was able to stay on the rod was recorded as the latency to fall. TET was dissolved in 0.1 N HCl at a concentration of 50 mg/ml, and the pH was adjusted to 6.8-7.0 before diluted in saline. Mice were injected intraperitoneally (i.p.) with saline (baseline) or different TET dosages. Rotarod performance was evaluated at 1 and 3 h after injection (FIG. 3). […] No significant gender effect was detected at either time point (p>0.1).

[4] = tested on: CBA/CaJ mice; assay: Prepulse inhibition (PPI), sensory gating (Example 4); format: in vivo
Protocol: TET effects on sensory gating were evaluated using a prepulse inhibition (PPI) procedure. Mice were placed in a plastic restrainer situated on a plate with a pressure sensor. Any animal motion was detected by the sensor which measured its amplitude. TET at various dosages was injected (i. p.) 1 h before the test. For this study, CBA/CaJ mice were divided into four groups: control with saline injection only (n=6; 2 males), TET at 30 mg/kg (n=6; 3 males), 60 mg/kg (n=10; 5 males) and 120 mg/kg (n=6; 2 males). For all groups, the ratio between the PPI and startle amplitude was measured (FIG. 4). […] Thus, TET at 120 mg/kg has no toxic effects on sensory gating in the CBA/CaJ mouse.

[5] = tested on: C57BL/6J mice; assay: Rodent avoidance (shuttle box) test, memory (Example 5); format: in vivo
Protocol: FIG. 5 illustrates the effects of TET on mouse avoidance test. C57BL/6J mice were trained to move in the shuttle box when a sound was present. After 10 days of training, the latency of their avoidance test was recored and compared between the control (0) and drug-treated groups. Data are shown as means+/−S.E.M.
TET effects on memory were evaluated in mice with a rodent avoidance system, which consisted of two compartments of equal size (12.5 cm×20 cm×20 cm) that were connected by a door. Infrared LEDs were used to monitor rodent movement in each compartment. Sound cues were delivered via piezo tweeters in the ceiling of the compartments. Animals were trained to move from one compartment to the other upon presentation of the sound. […] The trials and responses were collected. Behavioral responses of mice with or without TET injection were measured after injection (FIG. 5). […] Again, one time administration of TET at 120 mg/kg had no significant toxic effects on memory in mice.

[6] = tested on: CBA/CaJ mice; assay: NIHL, white noise 110 dB SPL 30 min, ABR TTS, repeated TET (Example 6); format: in vivo; settings: 120 mg/kg two days before and three days after noise
Text: The average TTS across all test frequencies was 69.7 dB for the control group, 62.9 dB for the TET-treated group (about 6.8 dB of protection).

[7] = tested on: mice; assay: Salicylate-induced tinnitus model, SBAD Go/No-Go (Example 12); format: in vivo; settings: before or after drug injections, at these dosages
Text: The SBAD method with Go/No-Go paradigm was used for behavioral test in mice. For “Go” trial animals were trained to move from one compartment to another upon presentation of a sound. For “No-Go” trial animals were trained to stay in the compartment. Otherwise they received a shock. “Go” paradigm was used to monitor motor, motivation, and memory functions while “No-Go” was used to detect tinnitus-like behavior. A baseline was established for each mouse over three consecutive days. The same SBAD method was repeated one hour after intraperitoneal injections of sodium salicylate (400 mg/kg), and two hours after TET injections.

[8] = tested on: mice; assay: Noise-induced tinnitus model, SBAD Go/No-Go (Example 12); format: in vivo
Text: The SBAD method with Go/No-Go paradigm was used for behavioral test in mice. For “Go” trial animals were trained to move from one compartment to another upon presentation of a sound. For “No-Go” trial animals were trained to stay in the compartment. Otherwise they received a shock. “Go” paradigm was used to monitor motor, motivation, and memory functions while “No-Go” was used to detect tinnitus-like behavior. One ear was exposed to a 120 dB noise (4-25 kHz) for two hours for this noise-induced tinnitus model. DPOAE and ABR were measured to monitor possible hearing loss in each ear 2 weeks after noise exposure. SBAD measurements were made 2, 4, and 8 weeks after noise exposure, and also after TET (0, 30, 60, 90 mg/kg) injection.

[9] = higher dosages; abdominal distension, diarrhea, dry eye, itching, hyperpigmentation, mildly elevated liver enzymes; resolve after discontinuance; cited from earlier work
[10] = rats, cited from earlier work
[11] = single oral administration 50 mg/kg

COc1ccc2cc1Oc1ccc(cc1)C[C@H]1c3cc(c(OC)cc3CCN1C)Oc1c(OC)c(OC)cc3c1[C@H](C2)N(C)CC3 [TET, tetrandrine]
rotarod latency to fall vs control [1]: not significantly different
increase of ABR threshold at 40 kHz [2]: ~10 dB
rotarod performance (latency to fall) vs baseline ([3]; 60 mg/kg i.p.): no significant side effects
rotarod performance (latency to fall) vs baseline ([3]; 120 mg/kg i.p.): no significant side effects
ratio between PPI and startle amplitude, pre- vs post-treatment ([4]; 30 mg/kg i.p. 1 h before test): No significant differences
ratio between PPI and startle amplitude, pre- vs post-treatment ([4]; 60 mg/kg i.p. 1 h before test): No significant differences
ratio between PPI and startle amplitude, pre- vs post-treatment ([4]; 120 mg/kg i.p. 1 h before test): No significant differences
avoidance test latency to cross vs control ([5]; 60 mg/kg): No significant difference
avoidance test latency to cross vs control ([5]; 120 mg/kg): No significant difference
avoidance test latency to cross vs control ([5]; 180 mg/kg, one-tailed t-test p<0.05): significant increase
protection (TTS difference to control) [6]: about 6.8 dB
average TTS across all test frequencies ([6]; 24 hours after exposure, four month-old mice (control 69.7 dB)): 62.9 dB
"Go" testing (motor, motivation, memory functions) [7]: No significant changes
"Go" trials (motor, motivation, memory functions) [8]: No significant changes
side effects in patients [9]: limited side effects
drug elimination from plasma ([10]; between 12.5 to 25 mg/kg): consistent with linear kinetics
area under the curve (AUC) [10, 11]: 6279.2 ± 2411.5 ng·h/mL
half time (T½) [10, 11]: 20.6 ± 3.7 h
drug concentration-curve model [10]: fits well with a two-compartment open model
